In patent publication US11376246B2, “Inhibiting mutant IDH-1” (FORMA Therapeutics, Inc., priority 2018, dated 2022):

What was measured:
[1] = Literature reported data; cited from earlier work
[2] = Dynamic vapor sorption (DVS); type: physicochemical; details: 25° C./90% RH

## N#Cc1ccnc(N2C(=O)CC[C@H]2C(=O)N(c2cncc(F)c2)[C@H](C(=O)NC2CC(F)(F)C2)c2ccccc2Cl)c1 [AG-120]
[1]
  BBB+: No

## C[C@@H](Nc1nc(N[C@H](C)C(F)(F)F)nc(-c2cccc(Cl)n2)n1)C(F)(F)F [AG-881]
[1]
  BBB+: Yes

## C[C@H](Nc1ccc(C#N)n(C)c1=O)c1cc2cc(Cl)ccc2[nH]c1=O [Compound 1 Type A, (S)-5-((1-(6-chloro-2-oxo-1,2-dihydroquinolin-3-yl)ethyl)amino)-1-methyl-6-oxo-1,6-dihydropyridine-2-carbonitrile]
[2]
  maximum water uptake (DVS): 0.25 % w/w

## Cc1cc([C@H](C)Nc2nccc(N3C(=O)OC[C@@H]3C(C)C)n2)ncc1-c1ccnc(C(F)(F)F)c1 [IDH305]
[1]
  BBB+: Yes

## Cc1cc(-c2cnc([C@H](C)Nc3nccc(N4C(=O)OC[C@@H]4C(C)C)n3)nc2)ccc1F [IDH889]
[1]
  BBB+: Yes
